Drawing on patent publication US8952034B2, “Fused heterocyclic compounds as ion channel modulators” (Gilead Sciences, Inc., priority 2009, dated 2015), this text covers inhibition for 36 molecules.

Chain of wild-type human cardiac sodium channel, hNav1.5 (Q14524 whole entry): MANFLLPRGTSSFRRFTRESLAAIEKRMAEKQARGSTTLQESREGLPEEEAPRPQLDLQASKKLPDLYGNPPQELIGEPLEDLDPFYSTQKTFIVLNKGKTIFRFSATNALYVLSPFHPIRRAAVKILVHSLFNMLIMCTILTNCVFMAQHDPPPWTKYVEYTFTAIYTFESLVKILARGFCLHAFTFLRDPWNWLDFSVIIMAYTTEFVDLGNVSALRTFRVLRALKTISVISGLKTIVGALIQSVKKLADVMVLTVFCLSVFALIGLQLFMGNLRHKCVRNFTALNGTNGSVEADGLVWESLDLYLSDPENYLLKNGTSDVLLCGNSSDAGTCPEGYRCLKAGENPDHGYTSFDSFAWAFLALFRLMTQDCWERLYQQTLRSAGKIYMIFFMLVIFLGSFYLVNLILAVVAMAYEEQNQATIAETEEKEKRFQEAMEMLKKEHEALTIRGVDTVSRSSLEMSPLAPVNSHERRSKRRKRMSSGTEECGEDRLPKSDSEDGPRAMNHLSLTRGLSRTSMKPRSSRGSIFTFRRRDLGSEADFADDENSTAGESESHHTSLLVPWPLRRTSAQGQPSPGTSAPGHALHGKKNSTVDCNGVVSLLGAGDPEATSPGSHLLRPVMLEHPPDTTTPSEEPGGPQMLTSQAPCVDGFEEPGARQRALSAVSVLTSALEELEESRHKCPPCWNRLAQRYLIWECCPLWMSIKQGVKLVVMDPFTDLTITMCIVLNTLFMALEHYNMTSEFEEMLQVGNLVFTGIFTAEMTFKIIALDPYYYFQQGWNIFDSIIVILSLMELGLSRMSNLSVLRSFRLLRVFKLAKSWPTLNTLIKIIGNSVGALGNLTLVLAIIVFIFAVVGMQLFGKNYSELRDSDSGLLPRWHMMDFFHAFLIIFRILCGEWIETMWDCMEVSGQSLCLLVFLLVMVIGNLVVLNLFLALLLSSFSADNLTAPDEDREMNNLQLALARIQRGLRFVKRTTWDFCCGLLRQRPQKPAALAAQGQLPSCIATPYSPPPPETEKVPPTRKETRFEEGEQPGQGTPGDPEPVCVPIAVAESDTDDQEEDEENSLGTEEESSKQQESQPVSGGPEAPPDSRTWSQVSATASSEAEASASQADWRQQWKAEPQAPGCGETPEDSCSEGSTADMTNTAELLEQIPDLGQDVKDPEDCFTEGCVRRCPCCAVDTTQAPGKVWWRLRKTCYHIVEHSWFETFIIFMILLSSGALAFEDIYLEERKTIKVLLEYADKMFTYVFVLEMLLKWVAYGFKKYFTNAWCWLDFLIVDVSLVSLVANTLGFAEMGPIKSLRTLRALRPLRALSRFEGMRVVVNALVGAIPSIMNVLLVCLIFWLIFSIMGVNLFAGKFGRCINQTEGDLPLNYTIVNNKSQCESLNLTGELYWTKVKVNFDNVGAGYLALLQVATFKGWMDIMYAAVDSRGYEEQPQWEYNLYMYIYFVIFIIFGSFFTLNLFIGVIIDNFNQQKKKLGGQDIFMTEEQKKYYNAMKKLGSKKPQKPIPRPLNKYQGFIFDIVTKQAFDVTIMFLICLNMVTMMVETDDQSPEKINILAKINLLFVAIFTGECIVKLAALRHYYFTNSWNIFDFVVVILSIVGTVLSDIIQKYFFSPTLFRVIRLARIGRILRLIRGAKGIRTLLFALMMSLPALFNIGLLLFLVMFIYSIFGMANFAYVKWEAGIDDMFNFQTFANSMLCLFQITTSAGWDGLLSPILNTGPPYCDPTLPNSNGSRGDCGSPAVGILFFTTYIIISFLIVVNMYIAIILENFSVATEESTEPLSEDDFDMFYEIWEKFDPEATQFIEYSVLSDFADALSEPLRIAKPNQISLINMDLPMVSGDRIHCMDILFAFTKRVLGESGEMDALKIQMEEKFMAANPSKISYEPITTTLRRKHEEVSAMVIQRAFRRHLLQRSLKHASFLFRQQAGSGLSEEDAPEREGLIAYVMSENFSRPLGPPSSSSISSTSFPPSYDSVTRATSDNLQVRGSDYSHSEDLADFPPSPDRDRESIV

For this assay, the target named is wild-type human cardiac sodium channel, hNav1.5 (Homo sapiens, UniProt Q14524). Kind of assay: Late INa screening assay (automated whole cell patch clamp, PatchXpress). In kind it is cell-based. The following applies: compound at 1 μM; HEK293 cells expressing hNav1.5; late INa generated with 10 μM Tefluthrin (or 50 nM ATX II); read-out: LateINa_1 uM (percent block of late INa). In short, it runs like this:
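Late sodium current through wild-type human hNav1.5 stably expressed in HEK293 cells (no beta subunits) was recorded by automated whole-cell patch clamp on a PatchXpress 7000A at 24-27° C. Late INa was induced with 10 μM Tefluthrin or 50 nM ATX II. Cells were stepped from −120 mV to −20 mV for 250 ms at 0.1 Hz, and percent block was normalized to current in Na-free extracellular solution.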
On the technique in general: In patch-clamp work, channel activity is measured electrically.
Consider `CC(C)(O)C(F)(F)c1nnc2ccc(-c3ccc(OC(F)(F)F)cc3)cn12` [BHN-176, 1,1-difluoro-2-methyl-1-{6-[4-(trifluoromethoxy)phenyl][1,2,4]triazolo[4,3-a]pyridin-3-yl}propan-2-ol], for which the inhibition at 1 µM was 15.2%.
As to `FC(F)(F)c1ccc(C#Cc2ccc3nnc(C(F)(F)F)n3c2)cc1` [BHN-177, 3-(trifluoromethyl)-6-{[4-(trifluoromethyl)phenyl]ethynyl}[1,2,4]triazolo[4,3-a]pyridine], the inhibition at 1 µM amounted to 23.6%.
Turning to `COCCOc1cc(OC(F)(F)F)ccc1-c1ccc2nnc(C(F)(F)F)n2c1` [BHN-178, 6-[2-(2-methoxyethoxy)-4-(trifluoromethoxy)phenyl]-3-(trifluoromethyl)[1,2,4]triazolo[4,3-a]pyridine], the inhibition at 1 µM stood at 28.5%.
With `FC(F)(F)COc1ccc(-c2ccc3cnc(C(F)(F)F)n3c2)cn1` [BHN-179, 6-[6-(2,2,2-trifluoroethoxy)pyridin-3-yl]-3-(trifluoromethyl)imidazo[1,5-a]pyridine], the inhibition at 1 µM stood at 49.7%.
The result for `FC(F)(F)c1nnc2ccc(-c3ccc(OC4CC4)nc3)cn12` [BHN-180, 6-[6-(cyclopropyloxy)pyridin-3-yl]-3-(trifluoromethyl)[1,2,4]triazolo[4,3-a]pyridine] reads 21.1%.
Next, `N#CCOc1cc(OC(F)(F)F)ccc1-c1ccc2nnc(C(F)(F)F)n2c1` [BHN-181, {5-(trifluoromethoxy)-2-[3-(trifluoromethyl)[1,2,4]triazolo[4,3-a]pyridin-6-yl]phenoxy}acetonitrile]: 18.7%.
The result for `Cc1noc(-c2cc(-c3ccc4nnc(C(F)(F)F)n4c3)ccc2OC(F)(F)F)n1` [BHN-182, 6-[3-(3-methyl-1,2,4-oxadiazol-5-yl)-4-(trifluoromethoxy)phenyl]-3-(trifluoromethyl)[1,2,4]triazolo[4,3-a]pyridine] reads 18.9%.
Consider `FC(F)(F)c1ncc2ccc(-c3ncco3)cn12` [BHN-183, 6-(1,3-oxazol-2-yl)-3-(trifluoromethyl)imidazo[1,5-a]pyridine], for which the inhibition at 1 µM came out at 19.5%.
Consider `O=C(NCC(F)(F)c1nnc2ccc(-c3ccc(OC(F)(F)F)cc3)cn12)c1ccccn1` [BHN-184, N-(2,2-difluoro-2-{6-[4-(trifluoromethoxy)phenyl][1,2,4]triazolo[4,3-a]pyridin-3-yl}ethyl)pyridine-2-carboxamide], for which the inhibition at 1 µM was 29.8%.
The result for `COc1nnc2ccc(-c3ccc(OC(F)(F)F)cc3)cn12` [BHN-185, 3-methoxy-6-[4-(trifluoromethoxy)phenyl][1,2,4]triazolo[4,3-a]pyridine] reads 29.1%.
Next, `FC(F)(F)COc1nnc2ccc(-c3ccc(OC(F)(F)F)cc3)cn12` [BHN-186, 3-(2,2,2-trifluoroethoxy)-6-[4-(trifluoromethoxy)phenyl][1,2,4]triazolo[4,3-a]pyridine]: 45.2%; `FC(F)(F)COc1ccc(-c2ccc3nnc(C(F)(F)F)n3c2)nn1` [BHN-187, 6-[6-(2,2,2-trifluoroethoxy)pyridazin-3-yl]-3-(trifluoromethyl)[1,2,4]triazolo[4,3-a]pyridine]: 15.2%.
Next, `COCC(F)(F)c1nnc2ccc(-c3ccc(OC(F)(F)F)c(C)c3)cn12` [BHN-188, 3-(1,1-difluoro-2-methoxyethyl)-6-[3-methyl-4-(trifluoromethoxy)phenyl][1,2,4]triazolo[4,3-a]pyridine]: 41.3%.
Take `FC(F)(F)Oc1ccc(-c2ccc3nnc(C(F)(F)F)n3c2)cc1C(F)(F)F` [BHN-189, 6-[4-(trifluoromethoxy)-3-(trifluoromethyl)phenyl]-3-(trifluoromethyl)[1,2,4]triazolo[4,3-a]pyridine]: the inhibition at 1 µM stood at 56.9%.
The result for `Fc1ccc(COCC(F)(F)c2nnc3ccc(-c4ccc(OC(F)(F)F)cc4)cn23)cc1F` [BHN-190, 3-{2-[(3,4-difluorobenzyl)oxy]-1,1-difluoroethyl}-6-[4-(trifluoromethoxy)phenyl][1,2,4]triazolo[4,3-a]pyridine] reads 24.3%; that for `FC(F)(F)c1ncc2ccc(-c3nccs3)cn12` [BHN-191, 6-(1,3-thiazol-2-yl)-3-(trifluoromethyl)imidazo[1,5-a]pyridine], 19.8%.
The result for `COCC(F)(F)c1nnc2ccc(C#Cc3ccccc3)cn12` [BHN-192, 3-(1,1-difluoro-2-methoxyethyl)-6-(phenylethynyl)[1,2,4]triazolo[4,3-a]pyridine] reads 31%; that for `Cc1cc(COC(F)(F)c2nnc3ccc(-c4ccc(OC(F)(F)F)cc4)cn23)no1` [BHN-193, 3-{difluoro[(5-methyl-1,2-oxazol-3-yl)methoxy]methyl}-6-[4-(trifluoromethoxy)phenyl][1,2,4]triazolo[4,3-a]pyridine], 54.7%; that for `FC(F)(F)c1ncc2ccc(-c3ccccc3)cn12` [BHN-194, 6-phenyl-3-(trifluoromethyl)imidazo[1,5-a]pyridine], 22.2%.
As for `N#CC1(c2ccc(-c3ccc4nnc(C(F)(F)F)n4c3)cc2)CC1` [BHN-195, 1-{4-[3-(trifluoromethyl)[1,2,4]triazolo[4,3-a]pyridin-6-yl]phenyl}cyclopropanecarbonitrile], the inhibition at 1 µM is 47.3%.
The result for `FC(F)(F)c1ncc2ccc(-c3nc4ccccc4o3)cn12` [BHN-196, 2-[3-(trifluoromethyl)imidazo[1,5-a]pyridin-6-yl]-1,3-benzoxazole] reads 26.8%; that for `CCC(O)(CC)C(F)(F)c1nnc2ccc(-c3ccc(OC(F)(F)F)cc3)cn12` [BHN-197, 3-(difluoro{6-[4-(trifluoromethoxy)phenyl][1,2,4]triazolo[4,3-a]pyridin-3-yl}methyl)pentan-3-ol], 25.4%; that for `OCC(F)(F)c1nnc2ccc(C#Cc3ccc(C(F)(F)F)cc3)cn12` [BHN-198, 2,2-difluoro-2-(6-{[4-(trifluoromethyl)phenyl]ethynyl}[1,2,4]triazolo[4,3-a]pyridin-3-yl)ethanol], 17.4%.
As to `FC(F)(F)c1ccc(-c2ccc3nnc(C(F)(F)F)n3c2)c(C(F)(F)F)c1` [BHN-199, 6-[2,4-bis(trifluoromethyl)phenyl]-3-(trifluoromethyl)[1,2,4]triazolo[4,3-a]pyridine], the inhibition at 1 µM is 20.6%.
Next, `COCC(F)(F)c1nnc2ccc(-c3ccc(OC(F)(F)F)cc3C)cn12` [BHN-200, 3-(1,1-difluoro-2-methoxyethyl)-6-[2-methyl-4-(trifluoromethoxy)phenyl][1,2,4]triazolo[4,3-a]pyridine]: 40.8%; `CC(C)c1nnc2ccc(-c3cc(F)c(Oc4ccccc4)c(F)c3)nn12` [BHN-201, 6-(3,5-difluoro-4-phenoxyphenyl)-3-(propan-2-yl)[1,2,4]triazolo[4,3-b]pyridazine]: 29.7%; `Cc1c(-c2ccc(OC(F)(F)F)cc2)ccc2nnc(C(F)(F)F)n12` [BHN-202, 5-methyl-6-[4-(trifluoromethoxy)phenyl]-3-(trifluoromethyl)[1,2,4]triazolo[4,3-a]pyridine]: 74.2%.
Next, `CC(C)c1nnc2ccc(-c3ccc(OCC(F)(F)F)nc3)nn12` [BHN-203, 3-(propan-2-yl)-6-[6-(2,2,2-trifluoroethoxy)pyridin-3-yl][1,2,4]triazolo[4,3-b]pyridazine]: 19.3%.
The result for `FC(F)(F)Oc1ccc(-c2ccc3nnc(C(F)(F)OCc4cccnc4)n3c2)cc1` [BHN-204, 3-[difluoro(pyridin-3-ylmethoxy)methyl]-6-[4-(trifluoromethoxy)phenyl][1,2,4]triazolo[4,3-a]pyridine] reads 43.9%; that for `CC(C)(O)COCC(F)(F)c1nnc2ccc(-c3ccc(OC(F)(F)F)cc3)cn12` [BHN-205, 1-(2,2-difluoro-2-{6-[4-(trifluoromethoxy)phenyl][1,2,4]triazolo[4,3-a]pyridin-3-yl}ethoxy)-2-methylpropan-2-ol], 25.2%; that for `FC(F)(F)Oc1ccc(-c2ccc3nnc(C(F)(F)OCc4noc(C5CC5)n4)n3c2)cc1` [BHN-206, 3-{[(5-cyclopropyl-1,2,4-oxadiazol-3-yl)methoxy](difluoro)methyl}-6-[4-(trifluoromethoxy)phenyl][1,2,4]triazolo[4,3-a]pyridine], 44.7%.
Consider `CC(C)Cc1nc(COC(F)(F)c2nnc3ccc(-c4ccc(OC(F)(F)F)cc4)cn23)no1` [BHN-207, 3-(difluoro{[5-(2-methylpropyl)-1,2,4-oxadiazol-3-yl]methoxy}methyl)-6-[4-(trifluoromethoxy)phenyl][1,2,4]triazolo[4,3-a]pyridine], for which the inhibition at 1 µM was determined as 60.3%.
The result for `CC(C)c1nc(COC(F)(F)c2nnc3ccc(-c4ccc(OC(F)(F)F)cc4)cn23)no1` [BHN-208, 3-(difluoro{[5-(propan-2-yl)-1,2,4-oxadiazol-3-yl]methoxy}methyl)-6-[4-(trifluoromethoxy)phenyl][1,2,4]triazolo[4,3-a]pyridine] reads 70.5%.
The result for `Fc1cc(-c2ccc3nnc(C(F)(F)F)n3n2)ccc1OC(F)(F)F` [BHN-209, 6-[3-fluoro-4-(trifluoromethoxy)phenyl]-3-(trifluoromethyl)[1,2,4]triazolo[4,3-b]pyridazine] reads 61%.
The result for `Fc1cc(-c2ccc3nnc(C(F)(F)F)n3n2)cc(F)c1Oc1ccccc1` [BHN-210, 6-(3,5-difluoro-4-phenoxyphenyl)-3-(trifluoromethyl)[1,2,4]triazolo[4,3-b]pyridazine] reads 33.8%.
`FC(F)(F)Oc1ccc(-c2ccc3nnc(C(F)(F)OCc4ccccn4)n3c2)cc1` [BHN-211, 3-[difluoro(pyridin-2-ylmethoxy)methyl]-6-[4-(trifluoromethoxy)phenyl][1,2,4]triazolo[4,3-a]pyridine]: the inhibition at 1 µM stood at 57.4%.
